{"source": "patent US8067197B2", "about": "“Soluble recombinant αvβ3 adhesion receptor” (Merck Patent GmbH, priority 1996, dated 2011)", "key": {"[1]": {"tested_on": "αVβ3 receptor (placenta, full length recombinant, soluble recombinant)", "assay": "Ligand binding assay: biotinylated ligands on immobilized integrins", "design": "species or system human", "details": "full length and soluble recombinant αVβ3, compared with placental αVβ3; result in words", "description": "The truncated and full length recombinant αVβ3 and placenta αVβ3 are immobilized and binding of biotinylated ligands is examined. Three purified RGD-containing ligands—vitronectin, fibrinogen and fibronectin—that are known to bind to αVβ3 are used. […] Vitronectin is used for testing specific interaction with the recombinant αVβ3. Biotinylated vitronectin and increasing concentrations of above-specified peptides or non-peptidic analogues are incubated in parallel with immobilized receptor.\nProteins in PBS were diluted with 5-fold concentrated ligation buffer [500 mM NaCl, 500 mM NaHCO3] to 1 mg/ml protein. Freshly prepared N-hydroxysuccinimidobiotin (Sigma) [1 mg/ml in DMSO] was added to 0.1 mg/ml and incubated for 2 h at 20° C. After dialysis [PBS, 0.025% NaN3], protein concentration was determined. The biotinylated proteins were stored at 4° C.\nLigand Binding assay Integrins were diluted to 1 μg/ml in coating buffer [150 mM NaCl, 1 mM CaCl2, 1 mM MgCl2, 10 μM MnCl2, 20 mM Tris-HCl; pH 7.4) and 100 μl were adsorbed overnight at 4° C. to 96-well microtitre plates. The plates were washed once with binding buffer [0.1% (w/v) BSA in coating buffer] and blocked with blocking buffer (coating buffer containing 3% (w/v) BSA) 2 h at 37° C. After rinsing with binding buffer, serially diluted biotinylated ligands were added. After incubation (3 h, 37° C.), unbound ligand was washed from the plate with binding buffer, and bound biotin was detected by incubation with antibiotin-alkaline-phosphatase conjugated antibody and detection of bound antibody with p-Nitrophenyl-phosphate (BIO-RAD) substrate."}, "[2]": {"biological_target": "αVβ3 receptor (placenta, full length recombinant, soluble recombinant)", "assay": "Competition assay: inhibition of biotinylated vitronectin binding to immobilized integrin", "design": "species or system human", "details": "biotinylated vitronectin 1 μg/ml, 3 h, 37° C.", "protocol": "The truncated and full length recombinant αVβ3 and placenta αVβ3 are immobilized and binding of biotinylated ligands is examined. Three purified RGD-containing ligands—vitronectin, fibrinogen and fibronectin—that are known to bind to αVβ3 are used. […] Biotinylated vitronectin and increasing concentrations of above-specified peptides or non-peptidic analogues are incubated in parallel with immobilized receptor.\nIntegrins were immobilized as described above. Serially diluted cyclic peptides were added in parallel with biotinylated vitronectin (1 μg/ml). After 3 h incubation at 37° C., bound ligand was detected as described above. […]"}, "[3]": {"tested_on": "αV and β3 virus infected Sf9 cells", "assay": "Cell shape change studies of virus-infected Sf9 cells on vitronectin coated plates", "assay_type": "cell-based, insect", "details": "result in words", "description": "Integrins determine and modulate the cell shape by acting as structural links between the extracellular matrix and the cytoskeleton (Schwartz et al. 1995, Ann. Rev. Cell Dev. Biol. 11, 549; Montgomery et al. 1994, Proc. Natl. Acad. Sci. USA 91, 8856). In later phases of baculovirus infection, Sf9/High Five cells are usually rounded and loosely attached (FIG. 3A), as were the cells infected with either of the αV or β3 expressing recombinant baculovirus alone or with the null recombinant virus (FIG. 3A). […] No shape change is observed in cells co-infected with αV(FL)+β3(SL) or αV(SL)+β3(SL). […] Correspondingly, cell shape change of αV and β3 virus infected Sf9 cells on vitronectin coated plates are inhibited when challenged with RGD peptides (Table 1).\nSf9 cells (1×10^6 cells/well) were allowed to adhere to six-well plates either virgin or coated with purified human plasma vitronectin (5 μg/ml in PBS; 2 hours) followed by blocking of non-specific sites (3% BSA (w/v) in PBS), then infected with various virus combinations. The cells were observed 48 hours post-infection for cell shape change."}, "[4]": {"tested_on": "Sf9 cells expressing full length or truncated αV or β3", "assay": "Metabolic pulse labelling of proteins expressed in Sf9 cells", "assay_type": "cell-based, insect", "details": "tunicamycin 10 μM or 10 μg/ml for 16 hours before and during pulse labelling; SDS-PAGE", "description": "The cell extracts were resolved by SDS-PAGE under reducing conditions. The molecular mass in kDa of standard protein markers are indicated on the right. • (B) Sf9 cells infected with αV (FL) (lanes 1 and 2), αV(SL) (lane 3 and 4), β3 (FL) (lane 5 and 6) and β3(SL) (lane 7 and 8) were either treated with 10 μM Tunicamycin in DMSO (lanes 1, 3, 5 and 7) or with DMSO alone (lanes 2, 4, 6 and 8). The infected cells were metabolically pulse labelled as above. Standard protein markers are indicated on the right.\nSimilarly, Sf9 cells expressing full length β3 how two bands of approximately 90 kDa and 125 kDa (FIG. 2A, lane 4).\nMetabolic labelling of Sf9 cells was performed as described (Summer and Smith 1987: A manual of methods for baculovirus vectors and insect cell procedures. Texas Agricultural Experiment Station Bulletin B-1555). Where indicated, tunicamycin (Sigma) was present at 10 μg/ml for 16 hours before and during pulse labelling. Cells were lysed with 100 μl of buffer [1% Nonidet® P-40, 1 mM CaCl2, 150 mM NaCl, 0.4 mM Pefabloc® (Boehringer Mann-heim), 10 μg/ml Leupeptin and E64 (Sigma), 10 mM Tris/HCl; pH 7.4; Nonidet P-40 is a detergent and Pefabloc is a protease inhibitor]. […]"}}, "note": "Square brackets hold non-standard residues; d marks the D form. βAla = NCCC(=O)O"}
{"compound": "vitronectin: purified RGD-containing ligand from human plasma, biotinylated", "values": [{"measurement": "binding of biotinylated ligand to immobilized receptor", "setting": "[1]", "value": "bind both to the full length and soluble receptor preparations in a concentration dependent manner"}]}
{"compound": "CC(C)[C@@H]1NC(=O)[C@@H](Cc2ccccc2)NC(=O)[C@H](CC(=O)O)NC(=O)CNC(=O)[C@H](CCCNC(=N)N)NC1=O", "note": "[cyc(RGDfV)]", "values": [{"measurement": "IC50", "setting": "[2]", "value": "1 to 5", "unit": "nM"}]}
{"compound": "fibrinogen", "values": [{"measurement": "binding of biotinylated ligand to immobilized receptor", "setting": "[1]", "value": "bind both to the full length and soluble receptor preparations in a concentration dependent manner"}]}
{"compound": "cyc(RβADfV) (cyclo(R[βAla]D[dF]V); SMILES CC(C)[C@@H]1NC(=O)[C@@H](Cc2ccccc2)NC(=O)[C@H](CC(=O)O)NC(=O)CCNC(=O)[C@H](CCCNC(=N)N)NC1=O) [control peptide where β-alanine was substituted for glycine]", "values": [{"measurement": "effect on cell shape change of αV and β3 virus infected Sf9 cells", "setting": "[3]", "value": "no effect"}]}
{"compound": "tunicamycin", "values": [{"measurement": "production of the slower migrating (glycosylated) band", "setting": "[4]", "value": "inhibits the production of the slower migrating band"}]}
{"compound": "cyc(RGEfV) (cyclo(RGE[dF]V); SMILES CC(C)[C@@H]1NC(=O)[C@@H](Cc2ccccc2)NC(=O)[C@H](CCC(=O)O)NC(=O)CNC(=O)[C@H](CCCNC(=N)N)NC1=O) [control peptide where glutamate was substituted for aspartate]", "values": [{"measurement": "effect on cell shape change of αV and β3 virus infected Sf9 cells", "setting": "[3]", "value": "no effect"}]}
{"compound": "fibronectin", "values": [{"measurement": "binding of biotinylated ligand to immobilized receptor", "setting": "[1]", "value": "bind both to the full length and soluble receptor preparations in a concentration dependent manner"}]}
